According to US20250230193A1, “CYCLIC COMPOUND HAVING SELECTIVE KRAS INHIBITORY EFFECT ON HRAS AND NRAS” (CHUGAI SEIYAKU KABUSHIKI KAISHA, priority 2022, published 2025):
Where a SMILES comes first, the peptide text is derived from it. Bridges are numbered along the chain shown (N, C = ends). [ ]: non-standard residue; d: D form. hPhe(3-Cl-4-CF3) = N[C@@H](CCc1ccc(C(F)(F)F)c(Cl)c1)C(=O)O; NPrPhe(4-CF3) = CCCN[C@@H](Cc1ccc(C(F)(F)F)cc1)C(=O)O; NMeGly(cPent) = CN[C@H](C(=O)O)C1CCCC1; Pro(4,4-F2) = O=C(O)[C@@H]1CC(F)(F)CN1; NMeD = CN[C@@H](CC(=O)O)C(=O)O; NMeL = CN[C@@H](CC(C)C)C(=O)O; NMeA = CN[C@@H](C)C(=O)O; Ac5c = NC1(C(=O)O)CCCC1; Aze = O=C(O)[C@@H]1CCN1; Sar = CNCC(=O)O

Key:
[1] = biological target: GDP-bound NRAS wild-type protein (Homo sapiens, UniProt P01111); assay: Binding to NRAS by surface plasmon resonance (SPR), Single Cycle Kinetics
[2] = biological target: GDP-bound HRAS wild-type protein (Homo sapiens, UniProt P01112); assay: Binding to HRAS by surface plasmon resonance (SPR), Single Cycle Kinetics
[3] = KD ratio NRAS/KRAS, class symbols
[4] = KD ratio HRAS/KRAS, class symbols

Sequence of GDP-bound HRAS wild-type protein (P01112 whole entry): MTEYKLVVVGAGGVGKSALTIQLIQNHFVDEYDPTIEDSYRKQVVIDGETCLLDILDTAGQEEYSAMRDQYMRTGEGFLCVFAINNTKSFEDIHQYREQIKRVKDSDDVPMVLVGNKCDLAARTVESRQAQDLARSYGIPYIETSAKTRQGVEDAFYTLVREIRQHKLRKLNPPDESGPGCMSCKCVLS
Sequence of GDP-bound NRAS wild-type protein (P01111 whole entry): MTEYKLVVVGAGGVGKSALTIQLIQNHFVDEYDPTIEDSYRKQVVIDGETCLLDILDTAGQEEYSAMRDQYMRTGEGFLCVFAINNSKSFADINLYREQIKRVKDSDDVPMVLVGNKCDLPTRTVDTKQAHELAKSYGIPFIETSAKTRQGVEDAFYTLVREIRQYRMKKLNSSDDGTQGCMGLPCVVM

`CCCN1C(=O)[C@@H]2CCN2C(=O)[C@H](C)N(C)C(=O)[C@H]([C@@H](C)CC)NC(=O)[C@H](CC(C)C)N(C)C(=O)C[C@@H](C(=O)N(C)C)N(C)C(=O)[C@H](C2CCCC2)N(C)C(=O)C2(CCCC2)NC(=O)[C@@H]2CCCN2C(=O)[C@H](CCc2ccc(C(F)(F)F)c(Cl)c2)NC(=O)CN(C)C(=O)[C@@H]1Cc1ccc(C(F)(F)F)cc1` [PP0178] ([NMeL]I[NMeA][Aze][NPrPhe(4-CF3)][Sar][hPhe(3-Cl-4-CF3)]P[Ac5c][NMeGly(cPent)][NMeD]-NMe2; lactam N-11) was tested, and the “NRAS/KRAS (ratio of KD for GDP-bound NRAS wild-type to KD for KRAS)” value ([1]; KD ratio NRAS/KRAS, SPR) was “C (A compound having a KD ratio of 0.1 or more and less than 3 is denoted as C)” and the “HRAS/KRAS (ratio of KD for GDP-bound HRAS wild-type to KD for KRAS)” value ([2]; KD ratio HRAS/KRAS, SPR) was “B (a compound having 3 or more and less than 10 is denoted as B)”.
With `C#CC[C@H]1C(=O)N[C@@H]([C@@H](C)CC)C(=O)N(C)CC(=O)N(C)[C@H]2C/C=C\CCN(C2=O)[C@@H](Cc2ccc(C(F)(F)F)cc2)C(=O)N(C)CC(=O)N[C@@H](CCc2ccc(C(F)(F)F)c(OC)c2)C(=O)N2C[C@H](OCC)C[C@H]2C(=O)NC2(CCC2)C(=O)N(C)[C@@H](C2CCCC2)C(=O)N(C)[C@H](C(=O)N(C)CCC)CC(=O)N1C` [PP2059] the “NRAS/KRAS (ratio of KD value with respect to NRAS to KD value with respect to KRAS)” value ([1]; SPR, GDP-bound NRAS wild-type vs GDP-bound KRAS wild-type) was “A (a compound having 10 or more and less than 20 is denoted as A)” and the “HRAS/KRAS (ratio of KD value with respect to HRAS to KD value with respect to KRAS)” value ([2]; SPR, GDP-bound HRAS wild-type vs GDP-bound KRAS wild-type) was “A (a compound having 10 or more and less than 20 is denoted as A)”.
`CC[C@H](C)[C@@H]1NC(=O)[C@H](COC)N(C)C(=O)C[C@@H](C(=O)N(C)C)N(C)C(=O)[C@H](C2CCCC2)N(C)C(=O)C2(CC(C)(C)C2)NC(=O)[C@@H]2C[C@@H](OC3CCC3)CN2C(=O)[C@H](CCc2cc(F)c(C(F)(F)F)c(F)c2)NC(=O)CN(C)C(=O)[C@H](CC2CCCCC2)N2CC/C=C\C[C@@H](C2=O)N(C)C(=O)CN(C2CC2)C1=O` [PP2618] was tested, and the “NRAS/KRAS (ratio of KD value with respect to GDP-bound NRAS wild-type protein to KD value with respect to KRAS)” value [1, 3] was “A (a compound having 10 or more and less than 20 is denoted as A)” and the “HRAS/KRAS (ratio of KD value with respect to GDP-bound HRAS wild-type protein to KD value with respect to KRAS)” value [2, 4] was “A (a compound having 10 or more and less than 20 is denoted as A)”.
`CC[C@H](C)[C@@H]1NC(=O)[C@H](COC)N(C)C(=O)C[C@@H](C(=O)N2CCCCC2)N(C)C(=O)[C@H](C2CCCC2)N(C)C(=O)C2(CC(C)(C)C2)NC(=O)[C@@H]2C[C@@H](OC(C)C)CN2C(=O)[C@H](CCc2ccc(Cl)c(Cl)c2)NC(=O)CN(C)C(=O)[C@H](Cc2ccc(C(F)(F)F)cc2)N2CC/C=C\C[C@@H](C2=O)N(C)C(=O)CN(C)C1=O` [PP2671] was tested, and the “NRAS/KRAS (ratio of KD value with respect to GDP-bound NRAS wild-type protein to KD value with respect to KRAS)” value [1, 3] was “A (a compound having 10 or more and less than 20 is denoted as A)” and the “HRAS/KRAS (ratio of KD value with respect to GDP-bound HRAS wild-type protein to KD value with respect to KRAS)” value [2, 4] was “A (a compound having 10 or more and less than 20 is denoted as A)”.
In the case of `CCC(CC)[C@H]1C(=O)N(C)[C@H](C(=O)N(C)C)CC(=O)N(C)[C@@H](COC)C(=O)N[C@@H]([C@@H](C)CC)C(=O)N(C)CC(=O)N(C)[C@H]2C/C=C\CCN(C2=O)[C@@H](Cc2ccc(C)cc2)C(=O)N(C)CC(=O)N[C@@H](CCc2cc(F)c(C(F)(F)F)c(F)c2)C(=O)N2CC3(CC3)C[C@H]2C(=O)NC2(CC(C)(C)C2)C(=O)N1C` [PP2963], the “NRAS/KRAS (ratio of KD value with respect to GDP-bound NRAS wild-type protein to KD value with respect to KRAS)” value [1, 3] is reported as “AA (a compound having 20 or more is denoted as AA)” and the “HRAS/KRAS (ratio of KD value with respect to GDP-bound HRAS wild-type protein to KD value with respect to KRAS)” value [2, 4] is reported as “A (a compound having 10 or more and less than 20 is denoted as A)”.
With `CCCN(C)C(=O)[C@@H]1CC(=O)N(C)[C@@H](COCC)C(=O)N[C@@H]([C@@H](C)CC)C(=O)N(C)CC(=O)N(C)[C@H]2C/C=C\CCN(C2=O)[C@@H](Cc2ccc(C(F)(F)F)cc2)C(=O)N(C)CC(=O)N[C@@H](CCc2ccc(C(F)(F)F)c(OC)c2)C(=O)N2C[C@H](OCC)C[C@H]2C(=O)NC2(CCC2)C(=O)N(C)[C@@H](C2CCCC2)C(=O)N1C` [PP2015] the “NRAS/KRAS (ratio of KD value for NRAS to KD value for KRAS)” value ([1]; KD ratio, GDP-bound NRAS wild-type vs GDP-bound KRAS wild-type, SPR) was “A (a compound having 10 or more and less than 20 is denoted as A)” and the “HRAS/KRAS (ratio of KD value for HRAS to KD value for KRAS)” value ([2]; KD ratio, GDP-bound HRAS wild-type vs GDP-bound KRAS wild-type, SPR) was “B (a compound having 3 or more and less than 10 is denoted as B)”.
For `CCCN1C(=O)CN(C)C(=O)[C@@H]2CCN2C(=O)[C@H]([C@@H](C)CC)NC(=O)[C@H](CC(C)C)N(C)C(=O)C[C@@H](C(=O)N(C)C)N(C)C(=O)[C@H](C2CCCC2)N(C)C(=O)C2(CCCC2)NC(=O)[C@@H]2CC(F)(F)CN2C(=O)[C@H](CCc2ccc(C(F)(F)F)c(Cl)c2)NC(=O)CN(C)C(=O)[C@@H]1Cc1ccc(C(F)(F)F)cc1` [PP0431] ([NMeL]I[Aze][Sar][NPrPhe(4-CF3)][Sar][hPhe(3-Cl-4-CF3)][Pro(4,4-F2)][Ac5c][NMeGly(cPent)][NMeD]-NMe2; lactam N-11), the “NRAS/KRAS (ratio of KD value with respect to GDP-bound NRAS wild-type protein to KD value with respect to KRAS)” value ([1]; KD ratio NRAS/KRAS, SPR) was “B (a compound having 3 or more and less than 10 is denoted as B)” and the “HRAS/KRAS (ratio of KD value with respect to GDP-bound HRAS wild-type protein to KD value with respect to KRAS)” value ([2]; KD ratio HRAS/KRAS, SPR) was “C (A compound having a KD ratio of 0.1 or more and less than 3 is denoted as C)”.
